Experimental data reported in patent US20250296937A1, “CYCLIC BISBENZYL TETRAHYDROISOQUINOLINE COMPOUND, AND PREPARATION METHOD THEREFOR AND USE THEREOF” (Shanghai Institute of Materia Medica, Chinesse Academy of …, priority 2021, published 2025).
Entries after “also recorded” stand apart in the source; their conditions may differ. Read-outs that look alike come from different tables or passages of the source.

Key:
[1] = system: A549 lung epithelial cells; experiment: Anti TGF-β1-induced fibrosis assay in A549 lung epithelial cells (microscopy, Western Blot); format: cell-based; details: 10 ng/ml TGF-β1, 1 μM compound
Method: Cell injury was observed by microscopic observation; cell viability was analyzed by CCK-8 assay; and protein expression levels of fibrosis-related indicators were detected by Western Blot method. A549 cells were purchased from ATCC; CCK-8 kit was purchased from Meilunbio, item number MA0218-3; TGF-β1 was purchased from MCE, item number HY-P70543; primary antibodies: Collagen was purchased from ARG21965, item no. arigobio; α-smooth muscle actin was purchased from CST, item no. mAb #19245; VIMENTN was purchased from CST, item no. mAb #5741; GAPDH was purchased from Yeasen, item no. 30201ES20.
Experimental methods: first, 8000 cells/well A549 cells were placed in 96-well plates and incubated overnight. On the second day, 0.1% DMSO was added to the control cells, 10 ng/ml TGF-β1 as well as 0.1% DMSO was added to the model group, 10 ng/ml TGF-β1 as well as 1 μM of the compounds (oxy, 1, 2, tet, 3, 4, 6, 58) was added to the treatment group, and the 96-well plates were sterilized and incubated in a constant temperature incubator for 72 hours. Finally, cell injury and growth were observed using a microscope; the viability of the cells was detected by CCK-8 kit.

[2] = system: 2019 novel coronavirus (SARS-CoV-2) original strain; experiment: Replication inhibitory activity against SARS-CoV-2 original strain in Vero E6 cells (qRT-PCR); format: cell-based; details: read-out: Inhibition against viral replication of the original strain EC50
[3] = system: carbon tetrachloride-induced acute liver fibrosis; experiment: Carbon tetrachloride-induced acute liver fibrosis in mice; format: in vivo, C57BL/6 mice; details: for liver fibrosis indicators (Collagen1, α-SMA) by WB assay: 30 mg/kg orally once a day for 6 days, CCl4 0.6 ml/kg i.p. D1, D3, D5; for effect on CCl4-induced acute liver fibrosis in mice: oral administration, 30 mg/kg
Method: In this example, the effect of the compounds of the present invention on the carbon tetrachloride-induced acute liver fibrosis model was analyzed by tissue observation, fibrosis indicators, HE and Sirius red staining; the injury of mice was determined by body weight testing and tissue bright-field photographing; the protein expression levels of fibrosis-related indicators were detected by WesternBlot assay; and the fibrosis progression was analyzed by HE and Sirius red staining. C57BL/6 mice were purchased from SLAC; CCl4 was purchased from Sinopharm Chemical Reagent Co, Ltd, item no. 10006464; olive oil was purchased from Sinopharm, item no. 69018028; primary antibody: Collagen was purchased from ARG21965, item no. arigobio; α-smooth muscle actin was purchased from CST, item no. mAb #19245; VIMENTN was purchased from CST, item no. mAb #5741; GAPDH was purchased from Yeasen, item no. mAb #30201ES20.
Solution preparation: CCl4 was diluted with olive oil (1:9, vol:vol) and the compounds were configured with 85% saline+5% DMSO+5% HS-15+5% PEG400 as solvents toa concentration of 3 mg/ml.
Construction of fibrosis model mice: […] C57 mice were randomly divided into […] after 1 week of adaptive feeding: blank group, model group, and 2 treatment groups; with 6 experimental animals in the blank group and 8 experimental animals in each of the remaining 3 groups. Except for the blank group, the remaining three groups were injected intraperitoneally with CCl4 (0.6 ml/kg) in D1, D3, and D5, respectively, and the blank group was injected intraperitoneally with olive oil at the same time. At the same time of modeling, mice in the treatment group were continuously administered by gavage for 6 days, once a day, 2 h after the injection of CC14, and the treatment group was administered orally 30 mg/kg of Compound 2 or Compound 4; mice in the blank group and the model group were given an equal amount of saline by intraperitoneal injection, and the mice were euthanized 24 h after the last administration of CCl4 for test. A portion of the liver tissue was cut to appropriate size and placed in 4% PFA, −80° C. refrigerator for subsequent detection of pathological changes in tissue sample slices, and WB assay, respectively.
Detection methods: 1. After autopsy, liver in situ photos were taken; 2. Liver tissue was retained and lysed using RIPA to extract proteins for WB detection; 3. HE staining as well as Sirius red detection were performed when liver tissue sections were fixed.

[4] = system: IL-6, IL-1β, CXCL9 mRNA in Raw 264.7 cells; experiment: mRNA levels of inflammatory indicators in LPS-induced inflammation model of Raw264.7 cells (Q-PCR); format: cell-based; details: 1 μg/ml LPS, 1 μM compound, 16 hours
Method: In this example, the effect of the compounds of the present invention on the inflammation level of the LPS-induced inflammation model of Raw 264.7 cells was analyzed by cell viability in combination with inflammatory factors; cell viability was analyzed by CCK-8 assay; and mRNA expression levels of inflammation-related indicators were detected by a real-time quantitative PCR (Q-PCR) method. Raw 264.7 cells were purchased from ATCC; CCK-8 kit was purchased from Meilunbio, item no. MA0218-3; LPS was purchased from Sigma, item no. L2630.
Experimental methods: first, 5*10^4 cells/well Raw 264.7 cells were placed in 12-well plates and incubated overnight. On the second day, 0.1% DMSO was added to the control cells, 1 μg/ml LPS as well as 0.1% DMSO was added to the model group, 1 μg/ml LPS as well as 1 μM of the compounds (oxyacanthine hydrochloride (oxy), 1, 2, tetrandrine (tet), 3, 4, 6, 58) was added to the treatment group, and the 12-well plates were sterilized and incubated in a constant temperature incubator for 16 hours. Cellular mRNA was extracted by lysis using Trizol (Yisheng, 10606ES60) and detected by real-time quantitative PCR after reverse transcription.

hERG potassium channel = target: T1, hERG potassium channel (Homo sapiens, UniProt Q12809); experiment: hERG potassium channel whole-cell membrane clamp in CHO cells; format: cell-based; details: for IC50: CHO cells stably expressing hERG, whole-cell membrane clamp
T1 construct: expressed in transfected cells
T1 sequence (Q12809 whole entry): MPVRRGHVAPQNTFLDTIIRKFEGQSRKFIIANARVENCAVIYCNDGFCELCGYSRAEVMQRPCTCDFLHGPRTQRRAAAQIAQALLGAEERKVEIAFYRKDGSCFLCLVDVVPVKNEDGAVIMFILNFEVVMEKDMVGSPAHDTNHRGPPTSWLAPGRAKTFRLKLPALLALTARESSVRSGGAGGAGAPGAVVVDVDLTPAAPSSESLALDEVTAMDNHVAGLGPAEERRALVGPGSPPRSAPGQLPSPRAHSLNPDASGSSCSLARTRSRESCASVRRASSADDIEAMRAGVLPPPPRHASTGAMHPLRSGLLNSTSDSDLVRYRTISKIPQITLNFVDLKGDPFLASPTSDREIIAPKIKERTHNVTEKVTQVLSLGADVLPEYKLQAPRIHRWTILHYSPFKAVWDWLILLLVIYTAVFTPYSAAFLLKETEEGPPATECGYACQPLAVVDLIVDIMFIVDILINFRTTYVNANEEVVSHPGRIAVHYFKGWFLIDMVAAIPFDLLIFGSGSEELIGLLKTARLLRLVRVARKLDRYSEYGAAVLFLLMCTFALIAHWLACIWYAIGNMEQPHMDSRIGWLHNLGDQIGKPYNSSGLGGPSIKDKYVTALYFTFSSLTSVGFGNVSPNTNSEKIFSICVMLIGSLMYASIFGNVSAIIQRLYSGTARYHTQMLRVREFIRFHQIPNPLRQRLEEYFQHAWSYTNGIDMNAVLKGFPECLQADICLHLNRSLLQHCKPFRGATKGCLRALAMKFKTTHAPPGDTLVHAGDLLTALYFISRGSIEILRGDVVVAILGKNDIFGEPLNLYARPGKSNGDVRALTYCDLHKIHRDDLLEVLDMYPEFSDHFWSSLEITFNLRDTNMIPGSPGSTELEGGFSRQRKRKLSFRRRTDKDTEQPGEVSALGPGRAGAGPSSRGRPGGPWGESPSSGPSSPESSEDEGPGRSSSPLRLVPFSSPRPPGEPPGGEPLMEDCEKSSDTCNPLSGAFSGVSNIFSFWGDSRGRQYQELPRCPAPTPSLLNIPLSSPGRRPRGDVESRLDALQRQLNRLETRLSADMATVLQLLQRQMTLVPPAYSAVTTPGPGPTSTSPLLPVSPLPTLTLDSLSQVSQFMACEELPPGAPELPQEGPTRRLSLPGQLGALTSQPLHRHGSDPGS
Method: Compounds were given for at least 1 min for each tested concentration, and at least 2 cells (n≥2) were tested per concentration.

Compound | alleviation of TGF-β1-induced fibrosis in A549 lung epithelial cells (Collagen1, α-SMA by WB) [1] | EC50 ([2]; Severe acute respiratory syndrome coronavirus 2, Vero C1008, 24 h) [µM] | liver fibrosis indicators (Collagen1, α-SMA) by WB assay [3] | effect on CCl4-induced acute liver fibrosis in mice [3] | inhibition of inflammatory factors (IL-6, IL-1β, CXCL9 mRNA) in LPS-induced inflammation model [4] | activity against hERG ion channels (hERG potassium channel) | IC50 (hERG potassium channel) [µM] | EC50 ([2]; Severe acute respiratory syndrome coronavirus 2, Vero C1008, Vero E6 cells, MOI 0.01, 24 h p.i., viral copy number by qRT-PCR) [µM] | IC50 (hERG potassium channel; human, CHO cells stably expressing hERG potassium channels, pH 7.4) [µM]
CCCCNC(=O)Oc1ccc2cc1Oc1ccc(cc1)C[C@H]1c3c(cc(OC)c(OC)c3Oc3cc4c(cc3OC)CCN(C)[C@@H]4C2)CCN1C [Compound 2] | alleviated; also recorded: partially alleviate fibrosis | 0.1 to 1 | down-regulated | alleviated; also recorded: mitigative effect | significantly inhibited inflammatory factors; also recorded: significant inhibition | weakly active | 19 |  | 
COc1cc2c3cc1Oc1c(OC)c(OC)cc4c1[C@H](Cc1ccc(cc1)Oc1cc(ccc1C(N)=O)C[C@H]3N(C)CC2)N(C)CC4 [Compound 4] | alleviated; also recorded: partially alleviate fibrosis |  | down-regulated | alleviated; also recorded: mitigative effect | significantly inhibited inflammatory factors; also recorded: significant inhibition | weakly active |  | 0.1 to 1 | 20
